According to the supplement of paper PMC10307832:

Columns and labels:
Assay in all cases: relative viability (nuclei count vs DMSO), 5 days (fraction); higher = more cells survive
LK-2 = system: LK-2
How it was run: (§1)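 Lung cancer cell lines in 1536-well plates were dosed by pin tool the day after seeding, either with one drug alone or with a fixed anchor-drug dose plus five library-drug doses (not always all listed) in √10 steps. After 5 days, cells were fixed and their nuclei stained in one step (final 0.05% Triton X-100, 1% formaldehyde, 1 ug/ml Hoechst), then counted on 4× images. Relative viability is the nuclei count in treated wells divided by that in vehicle wells. Values are medians of duplicate plates.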

HCC-827 = system: HCC-827
How it was run: as §1

COR-L 105 = system: COR-L 105
How it was run: as §1

NCI-H661 = system: NCI-H661
How it was run: as §1

EKVX = system: EKVX
How it was run: as §1

201T = system: 201T
How it was run: as §1

NCI-H1734 = system: NCI-H1734
How it was run: as §1

COR-L23 = system: COR-L23
How it was run: as §1

HCC-15 = system: HCC-15
How it was run: as §1

NCI-H2347 = system: NCI-H2347
How it was run: as §1

HCC-78 = system: HCC-78
How it was run: as §1

NCI-H1944 = system: NCI-H1944
How it was run: as §1

RERF-LC-KJ = system: RERF-LC-KJ
How it was run: as §1

HCC-366 = system: HCC-366
How it was run: as §1

PC-3 [JPC-3] = system: PC-3 [JPC-3]
How it was run: as §1

LC-2-ad = system: LC-2-ad
How it was run: as §1

NCI-H1755 = system: NCI-H1755
How it was run: as §1

SW 900 = system: SW 900
How it was run: as §1

NCI-H1915 = system: NCI-H1915
How it was run: as §1

NCI-H1650 = system: NCI-H1650
How it was run: as §1

NCI-H1648 = system: NCI-H1648
How it was run: as §1

LU99A = system: LU99A
How it was run: as §1

NCI-H441 = system: NCI-H441
How it was run: as §1

BEN = system: BEN
How it was run: as §1

C=C1C(=O)O[C@@H](CCCCCCCC)[C@@H]1C(=O)O [C-75] + O=C(c1cc(Cc2n[nH]c(=O)c3ccccc23)ccc1F)N1CCN(C(=O)C2CC2)CC1 [Olaparib] (partner 8 µM)
relative viability (LK-2; first compound 0.08 µM): 0.674 | relative viability (LK-2; first compound 0.253 µM): 0.84 | relative viability (LK-2; first compound 0.8 µM): 0.64 | relative viability (LK-2; first compound 2.53 µM): 0.596 | relative viability (LK-2; first compound 8 µM): 0.502 | relative viability (HCC-827; first compound 0.253 µM): 0.622 | relative viability (HCC-827; first compound 0.8 µM): 0.595 | relative viability (HCC-827; first compound 8 µM): 0.657 | relative viability (COR-L 105; first compound 0.08 µM): 0.719 | relative viability (COR-L 105; first compound 0.253 µM): 0.75 | relative viability (COR-L 105; first compound 0.8 µM): 0.668 | relative viability (COR-L 105; first compound 2.53 µM): 0.62 | relative viability (COR-L 105; first compound 8 µM): 0.523 | relative viability (NCI-H661; first compound 0.08 µM): 0.725 | relative viability (NCI-H661; first compound 0.253 µM): 0.805 | relative viability (NCI-H661; first compound 0.8 µM): 0.693 | relative viability (NCI-H661; first compound 2.53 µM): 0.66 | relative viability (NCI-H661; first compound 8 µM): 0.699 | relative viability (EKVX; first compound 0.08 µM): 0.811 | relative viability (EKVX; first compound 0.253 µM): 0.884 | relative viability (EKVX; first compound 0.8 µM): 0.837 | relative viability (EKVX; first compound 8 µM): 0.759 | relative viability (201T; first compound 0.08 µM): 0.812 | relative viability (201T; first compound 0.253 µM): 0.897 | relative viability (201T; first compound 0.8 µM): 0.84 | relative viability (201T; first compound 2.53 µM): 0.605 | relative viability (201T; first compound 8 µM): 0.87 | relative viability (NCI-H1734; first compound 0.08 µM): 0.546 | relative viability (NCI-H1734; first compound 0.253 µM): 0.569 | relative viability (NCI-H1734; first compound 0.8 µM): 0.277 | relative viability (NCI-H1734; first compound 2.53 µM): 0.506 | relative viability (NCI-H1734; first compound 8 µM): 0.608 | relative viability (COR-L23; first compound 0.08 µM): 0.353 | relative viability (COR-L23; first compound 0.253 µM): 0.216 | relative viability (COR-L23; first compound 0.8 µM): 0.284 | relative viability (COR-L23; first compound 2.53 µM): 0.325 | relative viability (COR-L23; first compound 8 µM): 0.319 | relative viability (HCC-15; first compound 0.08 µM): 0.686 | relative viability (HCC-15; first compound 0.253 µM): 0.752 | relative viability (HCC-15; first compound 0.8 µM): 0.672 | relative viability (HCC-15; first compound 2.53 µM): 0.612 | relative viability (HCC-15; first compound 8 µM): 0.785 | relative viability (NCI-H2347; first compound 0.08 µM): 0.552 | relative viability (NCI-H2347; first compound 0.253 µM): 0.514 | relative viability (NCI-H2347; first compound 0.8 µM): 0.532 | relative viability (NCI-H2347; first compound 2.53 µM): 0.539 | relative viability (NCI-H2347; first compound 8 µM): 0.614 | relative viability (HCC-78; first compound 0.08 µM): 0.838 | relative viability (HCC-78; first compound 0.253 µM): 1.08 | relative viability (HCC-78; first compound 0.8 µM): 0.81 | relative viability (HCC-78; first compound 8 µM): 0.823 | relative viability (NCI-H1944; first compound 0.08 µM): 0.381 | relative viability (NCI-H1944; first compound 0.253 µM): 0.419 | relative viability (NCI-H1944; first compound 0.8 µM): 0.353 | relative viability (NCI-H1944; first compound 2.53 µM): 0.392 | relative viability (NCI-H1944; first compound 8 µM): 0.428 | relative viability (RERF-LC-KJ; first compound 0.08 µM): 1.02 | relative viability (RERF-LC-KJ; first compound 0.253 µM): 0.966 | relative viability (RERF-LC-KJ; first compound 0.8 µM): 0.897 | relative viability (RERF-LC-KJ; first compound 2.53 µM): 0.729 | relative viability (RERF-LC-KJ; first compound 8 µM): 0.797 | relative viability (HCC-366; first compound 0.08 µM): 0.349 | relative viability (HCC-366; first compound 0.253 µM): 0.49 | relative viability (HCC-366; first compound 0.8 µM): 0.341 | relative viability (HCC-366; first compound 2.53 µM): 0.356 | relative viability (HCC-366; first compound 8 µM): 0.347 | relative viability (PC-3 [JPC-3]; first compound 0.08 µM): 1.13 | relative viability (PC-3 [JPC-3]; first compound 0.253 µM): 1.02 | relative viability (PC-3 [JPC-3]; first compound 0.8 µM): 1.11 | relative viability (PC-3 [JPC-3]; first compound 2.53 µM): 1.03 | relative viability (PC-3 [JPC-3]; first compound 8 µM): 1.2 | relative viability (LC-2-ad; first compound 0.08 µM): 0.683 | relative viability (LC-2-ad; first compound 0.253 µM): 0.751 | relative viability (LC-2-ad; first compound 0.8 µM): 0.343 | relative viability (LC-2-ad; first compound 2.53 µM): 0.596 | relative viability (LC-2-ad; first compound 8 µM): 0.668 | relative viability (NCI-H1755; first compound 0.08 µM): 0.93 | relative viability (NCI-H1755; first compound 0.253 µM): 0.872 | relative viability (NCI-H1755; first compound 0.8 µM): 0.847 | relative viability (NCI-H1755; first compound 2.53 µM): 0.797 | relative viability (NCI-H1755; first compound 8 µM): 0.846 | relative viability (SW 900; first compound 0.08 µM): 0.923 | relative viability (SW 900; first compound 0.253 µM): 0.945 | relative viability (SW 900; first compound 0.8 µM): 1.05 | relative viability (SW 900; first compound 2.53 µM): 0.803 | relative viability (SW 900; first compound 8 µM): 0.977 | relative viability (NCI-H1915; first compound 0.08 µM): 0.243 | relative viability (NCI-H1915; first compound 0.253 µM): 0.242 | relative viability (NCI-H1915; first compound 0.8 µM): 0.261 | relative viability (NCI-H1915; first compound 2.53 µM): 0.262 | relative viability (NCI-H1915; first compound 8 µM): 0.257 | relative viability (NCI-H1650; first compound 0.08 µM): 0.802 | relative viability (NCI-H1650; first compound 0.253 µM): 0.878 | relative viability (NCI-H1650; first compound 0.8 µM): 0.827 | relative viability (NCI-H1650; first compound 8 µM): 0.818 | relative viability (NCI-H1648; first compound 0.08 µM): 0.921 | relative viability (NCI-H1648; first compound 0.253 µM): 1.3 | relative viability (NCI-H1648; first compound 0.8 µM): 0.597 | relative viability (NCI-H1648; first compound 8 µM): 1.03 | relative viability (LU99A; first compound 0.08 µM): 0.255 | relative viability (LU99A; first compound 0.253 µM): 0.245 | relative viability (LU99A; first compound 0.8 µM): 0.25 | relative viability (LU99A; first compound 2.53 µM): 0.245 | relative viability (LU99A; first compound 8 µM): 0.205 | relative viability (NCI-H441; first compound 0.08 µM): 0.487 | relative viability (NCI-H441; first compound 0.253 µM): 0.391 | relative viability (NCI-H441; first compound 0.8 µM): 0.528 | relative viability (NCI-H441; first compound 8 µM): 0.486 | relative viability (BEN; first compound 0.08 µM): 1.22 | relative viability (BEN; first compound 0.253 µM): 1.07 | relative viability (BEN; first compound 0.8 µM): 1.04 | relative viability (BEN; first compound 2.53 µM): 0.771 | relative viability (BEN; first compound 8 µM): 0.914
